Common to all, as to experiment: Fluor de Lys fluorescence deacetylase inhibition assay
Holding throughout (format): biochemical
Conditions in all cases: read-out: 1 (IC50)

The target in one test is T1, HDAC8 (Homo sapiens, UniProt Q9BY41).
T1 construct: enzyme of BPS Bioscience contract assay
T1 sequence (Q9BY41 1-377): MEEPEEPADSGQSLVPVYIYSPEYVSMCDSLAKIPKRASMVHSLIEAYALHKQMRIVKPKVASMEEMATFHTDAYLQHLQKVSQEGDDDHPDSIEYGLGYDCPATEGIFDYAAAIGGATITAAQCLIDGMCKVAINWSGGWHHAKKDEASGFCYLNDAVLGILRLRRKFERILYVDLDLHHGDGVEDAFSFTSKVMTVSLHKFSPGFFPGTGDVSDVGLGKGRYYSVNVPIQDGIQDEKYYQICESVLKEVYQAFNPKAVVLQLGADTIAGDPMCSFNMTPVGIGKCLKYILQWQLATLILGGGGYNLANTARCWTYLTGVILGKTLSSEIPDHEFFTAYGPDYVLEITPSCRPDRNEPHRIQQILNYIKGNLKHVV
The source says:
Fluor de Lys fluorescence deacetylase inhibition assay on HDAC8

In the next test the target is T2, HDAC4 (Homo sapiens, UniProt P56524).
T2 construct: enzyme of BPS Bioscience contract assay
T2 sequence (P56524 627-1084 limits assumed): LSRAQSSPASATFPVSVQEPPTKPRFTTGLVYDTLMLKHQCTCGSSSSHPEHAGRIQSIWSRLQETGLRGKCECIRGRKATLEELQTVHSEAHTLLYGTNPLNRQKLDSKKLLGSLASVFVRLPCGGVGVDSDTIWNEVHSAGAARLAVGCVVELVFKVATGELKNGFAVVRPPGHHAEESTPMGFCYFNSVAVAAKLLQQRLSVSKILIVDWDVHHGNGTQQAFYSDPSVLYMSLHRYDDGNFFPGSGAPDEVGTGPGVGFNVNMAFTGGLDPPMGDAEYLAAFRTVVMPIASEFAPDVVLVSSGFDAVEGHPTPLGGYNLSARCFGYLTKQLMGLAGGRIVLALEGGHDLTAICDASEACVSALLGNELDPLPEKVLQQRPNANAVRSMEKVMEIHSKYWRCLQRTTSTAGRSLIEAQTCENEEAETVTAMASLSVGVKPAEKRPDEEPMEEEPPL
From the text:
Fluor de Lys fluorescence deacetylase inhibition assay on HDAC4

The target of a further test is T3, HDAC2 (Homo sapiens, UniProt Q92769).
T3 construct: enzyme of BPS Bioscience contract assay
T3 sequence (Q92769 whole entry): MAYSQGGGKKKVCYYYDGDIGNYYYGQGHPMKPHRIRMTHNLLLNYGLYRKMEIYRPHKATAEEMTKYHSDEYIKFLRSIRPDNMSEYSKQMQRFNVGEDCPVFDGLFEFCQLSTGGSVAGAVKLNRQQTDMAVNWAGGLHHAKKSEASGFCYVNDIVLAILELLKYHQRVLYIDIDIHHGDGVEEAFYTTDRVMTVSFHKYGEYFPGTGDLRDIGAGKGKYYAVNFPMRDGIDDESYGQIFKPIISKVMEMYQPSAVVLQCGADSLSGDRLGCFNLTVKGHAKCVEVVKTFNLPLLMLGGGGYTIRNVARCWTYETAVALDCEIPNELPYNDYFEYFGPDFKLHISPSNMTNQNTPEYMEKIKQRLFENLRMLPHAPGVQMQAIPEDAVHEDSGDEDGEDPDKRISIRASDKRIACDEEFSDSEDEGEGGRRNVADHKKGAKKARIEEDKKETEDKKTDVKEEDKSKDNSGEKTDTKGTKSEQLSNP
The source says:
Fluor de Lys fluorescence deacetylase inhibition assay on HDAC2

A further test concerns the target T4, HDAC10 (Homo sapiens, UniProt Q969S8).
T4 construct: enzyme of BPS Bioscience contract assay
T4 sequence (Q969S8 1-669): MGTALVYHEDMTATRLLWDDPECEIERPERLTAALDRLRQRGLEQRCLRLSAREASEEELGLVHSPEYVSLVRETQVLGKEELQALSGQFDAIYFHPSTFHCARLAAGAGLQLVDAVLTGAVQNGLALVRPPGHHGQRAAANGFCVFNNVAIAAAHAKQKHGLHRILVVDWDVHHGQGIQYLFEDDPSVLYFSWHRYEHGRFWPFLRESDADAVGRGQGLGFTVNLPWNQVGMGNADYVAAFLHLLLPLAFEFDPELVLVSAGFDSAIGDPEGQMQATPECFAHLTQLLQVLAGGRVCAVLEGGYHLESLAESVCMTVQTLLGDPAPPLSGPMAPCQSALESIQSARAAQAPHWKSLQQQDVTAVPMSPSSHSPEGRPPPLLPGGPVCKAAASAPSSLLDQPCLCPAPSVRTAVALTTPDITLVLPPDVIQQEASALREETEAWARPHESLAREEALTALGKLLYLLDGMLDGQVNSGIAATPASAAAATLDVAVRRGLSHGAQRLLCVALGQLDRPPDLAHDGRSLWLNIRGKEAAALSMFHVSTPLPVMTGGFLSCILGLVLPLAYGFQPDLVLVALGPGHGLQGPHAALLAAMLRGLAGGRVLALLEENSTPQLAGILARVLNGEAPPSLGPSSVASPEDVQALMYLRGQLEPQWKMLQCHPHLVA
The source says:
Fluor de Lys fluorescence deacetylase inhibition assay on HDAC10

For the next test, the target named is T5, HDAC6 (Homo sapiens, UniProt Q9UBN7).
T5 construct: enzyme of BPS Bioscience contract assay
T5 sequence (Q9UBN7 1-1215): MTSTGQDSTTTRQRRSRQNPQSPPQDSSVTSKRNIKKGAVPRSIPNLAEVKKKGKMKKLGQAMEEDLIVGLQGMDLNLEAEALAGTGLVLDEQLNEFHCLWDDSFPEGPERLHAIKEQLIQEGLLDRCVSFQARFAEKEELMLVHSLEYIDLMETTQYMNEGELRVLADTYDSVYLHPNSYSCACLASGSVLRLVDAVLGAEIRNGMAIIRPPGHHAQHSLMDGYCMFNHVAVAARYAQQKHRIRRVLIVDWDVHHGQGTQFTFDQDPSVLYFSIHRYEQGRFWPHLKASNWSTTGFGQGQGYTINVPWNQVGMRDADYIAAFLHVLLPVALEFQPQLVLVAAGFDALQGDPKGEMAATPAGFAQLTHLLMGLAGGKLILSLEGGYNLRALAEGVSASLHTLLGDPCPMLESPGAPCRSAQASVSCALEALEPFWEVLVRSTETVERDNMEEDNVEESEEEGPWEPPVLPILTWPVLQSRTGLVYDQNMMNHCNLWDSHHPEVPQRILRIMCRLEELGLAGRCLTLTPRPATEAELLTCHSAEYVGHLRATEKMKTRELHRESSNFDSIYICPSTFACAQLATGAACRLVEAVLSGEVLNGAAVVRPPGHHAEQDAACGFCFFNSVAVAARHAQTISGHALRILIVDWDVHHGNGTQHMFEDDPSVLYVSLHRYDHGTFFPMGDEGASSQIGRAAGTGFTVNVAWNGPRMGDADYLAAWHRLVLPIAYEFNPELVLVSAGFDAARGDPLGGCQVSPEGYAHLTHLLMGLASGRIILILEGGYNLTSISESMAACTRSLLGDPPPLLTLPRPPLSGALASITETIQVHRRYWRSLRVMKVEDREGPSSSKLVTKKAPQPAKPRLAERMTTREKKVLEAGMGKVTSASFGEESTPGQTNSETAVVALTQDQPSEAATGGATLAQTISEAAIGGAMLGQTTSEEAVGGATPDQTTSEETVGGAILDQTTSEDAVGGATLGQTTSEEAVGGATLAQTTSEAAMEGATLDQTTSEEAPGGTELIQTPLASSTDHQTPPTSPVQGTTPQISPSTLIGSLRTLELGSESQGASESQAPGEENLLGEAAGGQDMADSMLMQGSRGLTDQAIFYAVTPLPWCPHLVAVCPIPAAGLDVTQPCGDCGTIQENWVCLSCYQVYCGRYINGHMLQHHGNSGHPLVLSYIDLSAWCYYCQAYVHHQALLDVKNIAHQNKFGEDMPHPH
From the text:
Fluor de Lys fluorescence deacetylase inhibition assay on HDAC6

For the next test, the target named is T6, HDAC5 (Homo sapiens, UniProt Q9UQL6).
T6 construct: enzyme of BPS Bioscience contract assay
T6 sequence (Q9UQL6 whole entry): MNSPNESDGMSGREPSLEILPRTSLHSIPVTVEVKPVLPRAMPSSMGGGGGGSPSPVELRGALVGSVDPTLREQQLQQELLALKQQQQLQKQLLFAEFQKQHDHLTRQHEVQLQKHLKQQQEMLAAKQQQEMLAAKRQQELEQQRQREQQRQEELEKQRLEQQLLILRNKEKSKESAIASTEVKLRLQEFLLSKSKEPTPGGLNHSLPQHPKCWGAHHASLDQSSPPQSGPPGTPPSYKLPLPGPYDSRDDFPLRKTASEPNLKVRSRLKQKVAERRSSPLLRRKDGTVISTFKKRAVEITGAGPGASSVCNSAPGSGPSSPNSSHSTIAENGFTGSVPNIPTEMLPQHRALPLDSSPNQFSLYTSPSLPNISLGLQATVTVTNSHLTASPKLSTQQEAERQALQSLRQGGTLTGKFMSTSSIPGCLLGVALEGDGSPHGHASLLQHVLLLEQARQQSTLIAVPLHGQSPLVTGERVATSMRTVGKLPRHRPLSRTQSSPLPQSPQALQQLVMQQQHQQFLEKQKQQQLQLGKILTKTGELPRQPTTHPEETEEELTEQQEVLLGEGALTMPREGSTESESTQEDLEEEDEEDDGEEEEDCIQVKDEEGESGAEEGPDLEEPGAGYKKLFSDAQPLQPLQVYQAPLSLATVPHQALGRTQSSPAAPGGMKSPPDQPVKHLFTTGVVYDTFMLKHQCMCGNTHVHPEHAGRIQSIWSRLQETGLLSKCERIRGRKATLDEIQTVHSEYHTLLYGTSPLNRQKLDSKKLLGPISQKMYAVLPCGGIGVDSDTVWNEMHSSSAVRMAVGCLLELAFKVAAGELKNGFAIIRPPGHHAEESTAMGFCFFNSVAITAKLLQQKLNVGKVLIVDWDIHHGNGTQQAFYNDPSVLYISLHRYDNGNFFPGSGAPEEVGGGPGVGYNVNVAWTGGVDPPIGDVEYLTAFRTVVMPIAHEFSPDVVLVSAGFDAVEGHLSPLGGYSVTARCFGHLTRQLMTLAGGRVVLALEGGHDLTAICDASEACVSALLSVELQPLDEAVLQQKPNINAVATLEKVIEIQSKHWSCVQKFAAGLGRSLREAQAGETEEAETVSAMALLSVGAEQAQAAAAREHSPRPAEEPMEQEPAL
From the text: Fluor de Lys fluorescence deacetylase inhibition assay on HDAC5

In another test the target is T7, HDAC9 (Homo sapiens, UniProt Q9UKV0).
T7 construct: enzyme of BPS Bioscience contract assay
T7 sequence (Q9UKV0 whole entry): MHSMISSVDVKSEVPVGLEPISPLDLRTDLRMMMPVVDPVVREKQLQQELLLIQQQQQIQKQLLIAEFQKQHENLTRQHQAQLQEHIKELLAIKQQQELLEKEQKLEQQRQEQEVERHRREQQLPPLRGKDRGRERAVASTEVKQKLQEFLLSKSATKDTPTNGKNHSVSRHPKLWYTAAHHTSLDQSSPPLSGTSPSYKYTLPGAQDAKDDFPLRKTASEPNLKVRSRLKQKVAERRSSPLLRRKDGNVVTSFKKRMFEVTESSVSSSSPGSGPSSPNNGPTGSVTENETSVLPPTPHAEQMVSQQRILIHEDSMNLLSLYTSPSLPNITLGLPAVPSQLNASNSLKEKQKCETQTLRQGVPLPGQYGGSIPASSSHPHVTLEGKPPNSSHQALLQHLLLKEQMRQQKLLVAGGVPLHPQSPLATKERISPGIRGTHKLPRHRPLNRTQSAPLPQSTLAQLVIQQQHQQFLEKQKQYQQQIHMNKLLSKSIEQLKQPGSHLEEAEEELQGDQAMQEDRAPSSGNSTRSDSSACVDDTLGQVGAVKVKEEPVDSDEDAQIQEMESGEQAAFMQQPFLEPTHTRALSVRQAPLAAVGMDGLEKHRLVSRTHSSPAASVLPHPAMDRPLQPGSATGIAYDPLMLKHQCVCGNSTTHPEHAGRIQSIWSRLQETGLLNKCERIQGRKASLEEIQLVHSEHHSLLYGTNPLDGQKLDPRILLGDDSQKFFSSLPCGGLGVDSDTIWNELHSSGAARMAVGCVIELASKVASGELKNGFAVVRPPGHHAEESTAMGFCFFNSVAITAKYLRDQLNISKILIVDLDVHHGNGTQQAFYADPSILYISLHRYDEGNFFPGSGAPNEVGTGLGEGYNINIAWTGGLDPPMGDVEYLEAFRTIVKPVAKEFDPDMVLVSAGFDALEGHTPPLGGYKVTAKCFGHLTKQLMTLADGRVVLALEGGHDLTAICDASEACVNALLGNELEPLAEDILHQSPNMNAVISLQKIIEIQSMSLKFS
From the text:
Fluor de Lys fluorescence deacetylase inhibition assay on HDAC9

A further test addresses T8, HDAC7 (Homo sapiens, UniProt Q8WUI4).
T8 construct: enzyme of BPS Bioscience contract assay
T8 sequence (Q8WUI4 518-952 limits assumed): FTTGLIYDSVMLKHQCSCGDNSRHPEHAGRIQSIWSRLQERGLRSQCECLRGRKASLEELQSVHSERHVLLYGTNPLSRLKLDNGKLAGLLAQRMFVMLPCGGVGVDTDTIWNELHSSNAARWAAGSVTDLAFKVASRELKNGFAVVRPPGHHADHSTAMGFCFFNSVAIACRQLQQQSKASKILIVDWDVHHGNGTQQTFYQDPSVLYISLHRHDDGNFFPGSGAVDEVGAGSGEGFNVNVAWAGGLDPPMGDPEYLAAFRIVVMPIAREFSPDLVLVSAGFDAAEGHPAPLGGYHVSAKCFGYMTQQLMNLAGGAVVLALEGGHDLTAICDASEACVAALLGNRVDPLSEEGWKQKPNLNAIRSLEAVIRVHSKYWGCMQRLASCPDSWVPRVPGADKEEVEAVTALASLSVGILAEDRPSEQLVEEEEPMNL
From the text: Fluor de Lys fluorescence deacetylase inhibition assay on HDAC7

Another test concerns the target T9, HDAC1 (Homo sapiens, UniProt Q13547).
T9 construct: enzyme of BPS Bioscience contract assay
The source says:
Fluor de Lys fluorescence deacetylase inhibition assay on HDAC1

The target in another test is T10, HDAC11 (Homo sapiens, UniProt Q96DB2).
T10 construct: enzyme of BPS Bioscience contract assay
T10 sequence (Q96DB2 1-347): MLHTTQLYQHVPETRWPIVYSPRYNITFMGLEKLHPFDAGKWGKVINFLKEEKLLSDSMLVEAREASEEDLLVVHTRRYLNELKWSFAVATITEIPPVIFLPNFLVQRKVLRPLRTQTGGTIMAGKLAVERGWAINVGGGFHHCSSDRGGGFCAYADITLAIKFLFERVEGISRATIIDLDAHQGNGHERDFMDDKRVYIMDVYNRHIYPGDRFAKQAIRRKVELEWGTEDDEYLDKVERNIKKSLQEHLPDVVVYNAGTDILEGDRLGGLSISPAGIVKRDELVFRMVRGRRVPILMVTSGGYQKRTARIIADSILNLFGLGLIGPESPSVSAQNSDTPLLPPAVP
The source says: Fluor de Lys fluorescence deacetylase inhibition assay on HDAC11

T9 sequence (Q13547 whole entry): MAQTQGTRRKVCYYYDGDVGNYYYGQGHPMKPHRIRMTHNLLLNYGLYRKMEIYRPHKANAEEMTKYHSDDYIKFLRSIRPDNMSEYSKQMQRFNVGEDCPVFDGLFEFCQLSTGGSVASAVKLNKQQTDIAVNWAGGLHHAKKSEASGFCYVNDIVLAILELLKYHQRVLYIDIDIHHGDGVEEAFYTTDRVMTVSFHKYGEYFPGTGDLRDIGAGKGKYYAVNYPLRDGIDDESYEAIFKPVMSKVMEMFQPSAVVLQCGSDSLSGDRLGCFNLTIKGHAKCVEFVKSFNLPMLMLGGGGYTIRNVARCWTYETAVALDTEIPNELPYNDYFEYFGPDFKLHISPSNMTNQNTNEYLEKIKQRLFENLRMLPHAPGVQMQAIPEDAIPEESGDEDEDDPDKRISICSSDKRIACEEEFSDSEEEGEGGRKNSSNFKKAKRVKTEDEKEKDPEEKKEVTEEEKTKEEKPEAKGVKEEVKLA

For orientation: IC50 means the concentration needed to halve the response being measured. As for `CC[C@H]1OC(=O)[C@H](C)[C@@H](O[C@H]2C[C@@](C)(OC)[C@@H](O)[C@H](C)O2)[C@H](C)[C@@H](O[C@@H]2O[C@H](C)C[C@H](N(C)Cc3ccc(-c4cn(CCCCCCC(=O)NO)nn4)cc3)[C@H]2O)[C@](C)(O)C[C@@H](C)CN(C)[C@H](C)[C@@H](O)[C@]1(C)O` [compound 1], the half-inhibitory concentration (IC50) came to 839 nM at HDAC8; 1900 nM at HDAC4; 8.1 nM on HDAC2; 4.5 nM on HDAC10; 1.7 nM on HDAC6; 1770 nM on HDAC5. In addition, the IC50 on HDAC9 turned out to be 6910 nM; at HDAC7, 2620 nM; at HDAC1, 2.7 nM; at HDAC11 it was 7360 nM.

Values taken from publication PMC7690782, “Liver-Targeting Class I Selective Histone Deacetylase Inhibitors Potently Suppress Hepatocellular Tumor Growth as Standalone Agents” (Cancers, 2020).
